Tests used:
[1] = In vivo rat pharmacokinetics experiments; details: for F: oral gavage, dose 1 to 600 mg/kg
Description: Example 99: Protocol for Testing PAR2 Compounds In Vivo Rat Pharmacokinetics Experiments
Compounds delivered by intravenous route were formulated using a solution formulation consisting of 5% N-methylpyrrolidone 10% Vitamin E-TPGS and 85% water (v/v/) or a solution formulation consisting of 25% N-methylpyrrolidone 35% polyethylene glycol 400 and 40% water (v/v/). Intravenous formulations were administered by a bolus injection (over approximately 10 seconds) using a hypodermic needle attaches to a syringe (tail vein). The dose volume was varied from 1 to 2 mL/kg and the dose was varied from 0.5 to 1 mg/kg. Compounds delivered orally were formulated as a solution formulation consisting of 5% N-methylpyrrolidone 10% Vitamin E-TPGS and 85% water (v/v/) or as fine suspension using a cellulose derivative suspending agent with or without the addition of a wetting agent/surfactant. Milling of large particles was performed as needed to reduce particle size using focused electroacoustic milling, homogenization or low energy media milling. A spray-dried solid dispersion was prepared for key compounds using 1:1 combination with cellulose derivatives. Test compounds were administered orally by gavage using a gavage plastic needle attached to a syringe. The dose volume was varied from 5 to 10 mL/kg and the dose was varied from 1 to 600 mg/kg.
Rats were bled by venipuncture (jugular vein) and the samples were collected into tubes containing K3EDTA. The tubes were placed on wet ice until processed. The samples were centrifuged for approximately 10 minutes (at approximately 4° C.) within approximately 30 minutes of collection to prepare plasma or diluted in citrate buffer (1:3) and stored frozen (approximately −30° C.). Thawed plasma or whole blood samples were extracted by protein precipitation using an organic solvent followed by centrifugation. The supernatants were separated by high-performance liquid chromatography coupled to mass spectrometry detection. A calibration curve was prepared using reference standard compounds spiked into either blank plasma or whole blood matrices and extracted similarly to unknown samples. Pharmacokinetic parameters were calculated using non-compartmental analysis.

[2] = system: carrageenan induced paw edema; experiment: Rat carrageenan-induced paw edema model; type: in vivo; details: given 0.5-3 hour before carrageenan
Description: Example 100: In Vivo Pharmacological Evaluation of PAR2 Pathway Inhibitors Subjects and Housing and Rat Carrageenan-Induced Paw Edema Model Male Sprague Dawley rats were housed in groups in a temperature controlled room and were acclimatized in the animal facility for at least three days prior to use. Experiments were performed during the light phase of the cycle. Animals have food and water ad libitum. Peripheral inflammation was induced by intra-plantar administration of 100 ul of a 1% w/volume (in saline) carrageenan solution under isoflurane anesthesia. The degree of swelling was assessed using the plethysmometer at 2-3-4-5-6 h after carrageenan injection. Test compound or vehicle (0.5% MC/0.1% SDS) was systemically administered at the indicated doses in a volume of 5 mL/kg either 0.5-3 hour before carrageenan challenge (Table 4).

[3] = system: UTP-stimulated Ca2+ response in HT-29 cells; experiment: Ca FLIPR TETRA assay, ANTAGONIST mode, activator 0.6 μM UTP; type: cell-based; details: Homo sapiens; HT-29 cells, activator 0.6 μM UTP
In short: (§1)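 Inhibition of agonist-evoked calcium signals was measured in human HT-29 colon cells cultured overnight in 1% FBS McCoy's medium. Test compounds preincubated 30 min at r.t.; activators at final concentrations as stated for each readout.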

[4] = system: Thrombin-stimulated Ca2+ response in HT-29 cells; experiment: Ca FLIPR TETRA assay, ANTAGONIST mode, activator 1 U/mL Thrombin; type: cell-based; details: Homo sapiens; HT-29 cells, activator 1 U/mL Thrombin
In short: as §1

[5] = biological target: T1, PAR2 (HT-29 cells) (Homo sapiens, UniProt P55085); experiment: Ca FLIPR TETRA assay, ANTAGONIST mode, activator 3.1 U/mL trypsin; type: cell-based; details: HT-29 cells; activator 3.1 U/mL trypsin; Method A: maximal concentration of antagonist 0.1, 1 or 2 μM
T1 construct: host or cells: HT-29
T1 sequence (P55085 26-397): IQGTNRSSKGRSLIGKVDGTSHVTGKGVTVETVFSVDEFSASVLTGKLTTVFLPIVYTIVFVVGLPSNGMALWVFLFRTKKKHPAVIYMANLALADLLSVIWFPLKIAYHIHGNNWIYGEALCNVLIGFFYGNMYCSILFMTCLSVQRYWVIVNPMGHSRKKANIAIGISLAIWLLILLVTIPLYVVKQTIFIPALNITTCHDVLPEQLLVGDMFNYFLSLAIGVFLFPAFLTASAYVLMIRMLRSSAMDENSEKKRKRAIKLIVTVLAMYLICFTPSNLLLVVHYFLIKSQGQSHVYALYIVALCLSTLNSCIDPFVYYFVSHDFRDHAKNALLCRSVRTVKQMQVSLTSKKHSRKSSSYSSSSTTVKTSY
In short: as §1

[6] = biological target: T1, PAR2 (HT-29 cells); experiment: Ca FLIPR TETRA assay, ANTAGONIST mode, activator 8 μM SLIGKV; type: cell-based; details: HT-29 cells; activator 8 μM SLIGKV; Method A: maximal concentration of antagonist 0.1, 1 or 2 μM
In short: as §1

[7] = intravenous bolus 0.5 to 1 mg/kg, non-compartmental analysis

| Structure (SMILES) | Clp [1, 7] [mL/min/kg] | T ½ ([1]; non-compartmental analysis) [h] | F [1] [%] | % inhibition ([2]; dose 20 mg/kg) [%] | also measured |
| --- | --- | --- | --- | --- | --- |
| Cc1ccc(C(=O)O)c(N2CCN(C(=O)c3cc4nc(-c5ccc(Cl)c(F)c5)cc(C(C)(C)C)c4o3)C(C)(C)C2)n1 [Compound I-352] | 6.5 | 5.6 | 48 | 61 | – |
| CC(C)(C)c1cc(-c2ccc(Cl)c(F)c2)nc2cc(C(=O)N3CCN(c4ncc(-c5nnn[nH]5)cn4)CC3(C)C)oc12 [Compound I-331] | 8.9 | 1.6 | – | 27 | – |
| CC1(C)CCC(c2cc(C(C)(C)C)c3oc(C(=O)N4CCN(c5ncc(-c6nnn[nH]6)cn5)CC4(C)C)cc3n2)CC1 [Compound I-346] | 16.5 | 0.44 | 4.7 | 60 | – |
| CC1(C)CCC(c2cc(C(C)(C)C)c3oc(C(=O)N4CCN(C(=O)CC5(C(=O)O)CCC5)CC4(C)C)cc3n2)CC1 [Compound I-338] | 33 | 0.5 | – | 0 | – |
| CC(C)(C)c1cc(-c2ccc(Cl)c(F)c2)nc2cc(C(=O)N3CCN(c4cccc(-c5nnn[nH]5)n4)CC3(C)C)oc12 [Compound I-344] | 10.2 | 0.99 | 24 | 43 | – |
| CC1(C)CCC(c2cc(C(C)(C)C)c3oc(C(=O)N4CCN(c5cccc(-c6nnn[nH]6)n5)CC4(C)C)cc3n2)CC1 [Compound I-345] | 7.6 | 1.8 | 52 | – | % inhibition ([2]; dose 15 mg/kg): 28% |
| CC(C)[C@H](CC(=O)N1CCN(C(=O)c2cc3nc(-c4ccc(Cl)c(F)c4)cc(C(C)(C)C)c3o2)C(C)(C)C1)C(=O)O [Compound I-343] | 53 | 0.33 | 27 | 29 | – |
| CC(C)(C)c1cc(-c2ccc(Cl)c(F)c2)nc2cc(C(=O)N3CCN(c4cn[nH]c4)C(=O)C3(C)C)oc12 [Compound I-260] | 3.4 | 30.7 | 87 | 0.4 | – |
| CC1(C)CCC(c2cc(C(C)(C)C)c3oc(C(=O)N4CCN(C(=O)[C@H]5CC[C@@](C)(C(=O)O)CC5)CC4(C)C)cc3n2)CC1 [Compound I-316] | 13.9 | 1.0 | 49 | 38 | % inhibition ([2]; dose 5 mg/kg): 25% |

Continued, in another order:

| Clp [1, 7] [mL/min/kg] | T ½ ([1]; non-compartmental analysis) [h] | F [1] [%] | Structure (SMILES) | % inhibition ([2]; dose 20 mg/kg) [%] | also measured |
| --- | --- | --- | --- | --- | --- |
| 5.0 | 5.3 | 119 | CC1(C)CCC(c2cc(C(C)(C)C)c3oc(C(=O)N4CCN(c5cccc(C(=O)O)n5)CC4(C)C)cc3n2)CC1 [Compound I-449] | – | % inhibition ([2]; dose 15 mg/kg): 22% |
| 28 | 0.32 | 2.7 | CC(C)(CCC(=O)N1CCN(C(=O)c2cc3nc(-c4ccc(Cl)c(F)c4)cc(C(C)(C)C)c3o2)C(C)(C)C1)C(=O)O [Compound I-367] | 68 | – |
| 32 | 0.57 | 52 | CC1(C)CCC(c2cc(C(C)(C)C)c3oc(C(=O)N4CCN(C(=O)CCC(C)(C)C(=O)O)CC4(C)C)cc3n2)CC1 [Compound I-354] | 60 | – |
| – | – | 125 | CC(C)(C)c1cc(-c2ccc(Cl)c(F)c2)nc2cc(C(=O)N3CCN(c4cccc(C(=O)O)n4)CC3(C)C)oc12 [Example I-448, 6-[4-[7-tert-butyl-5-(4-chloro-3-fluoro-phenyl)furo[3,2-b]pyridine-2-carbonyl]-3,3-dimethyl-piperazin-1-yl]pyridine-2-carboxylic acid] | 21 | IC50 [3]: 1790 nM; IC50 [4]: 2000 nM; clearance ([1]; plasma, intravenous bolus 0.5 to 1 mg/kg, non-compartmental analysis, read-out: Clp): 9.3 mL/min/kg; half-life ([1]; plasma, non-compartmental analysis, read-out: T ½ (converted)): 5.2 h; % inhibition ([2]; dose 0.8 mg/kg): 11%; % inhibition ([2]; dose 3 mg/kg): 18%; % inhibition ([2]; dose 10 mg/kg): 30%; IC50 [5]: 0.3 nM; IC50 [6]: 0.2 nM |
| 3.6 | 23.2 | 66 | CC(C)(C)c1cc(-c2ccc(Cl)c(F)c2)nc2cc(C(=O)N3CCN(c4ccn[nH]4)C(=O)C3(C)C)oc12 [Compound I-406] | 21 | – |
| 9.2 | 5.1 | 46 | Cc1nc(N2CCN(C(=O)c3cc4nc(C5CCC(C)(C)CC5)cc(C(C)(C)C)c4o3)C(C)(C)C2)ncc1C(=O)O [Compound I-465] | 6 | – |

— patent US20180057505A1, “BICYCLIC HETEROARYL COMPOUNDS USEFUL AS INHIBITORS OF THE PAR-2 SIGNALING PATHWAY” (VERTEX PHARMACEUTICALS INCORPORATED, priority 2015, published 2018)
